According to patent publication US20230212222A1 (ANYGEN CO., LTD., priority 2020, published 2023):
Where two headings read alike, the source gives them in different places. Square brackets hold non-standard residues; d marks the D form. Peptide text beside a SMILES is read from it. * marks the point of attachment. His(Trt) = N[C@@H](Cc1cn(C(c2ccccc2)(c2ccccc2)c2ccccc2)cn1)C(=O)O; dHis(Trt) = N[C@H](Cc1cn(C(c2ccccc2)(c2ccccc2)c2ccccc2)cn1)C(=O)O; His(τ-CHPh2) = N[C@@H](Cc1cn(C(c2ccccc2)c2ccccc2)cn1)C(=O)O; Biotin = O=C1N[C@H]2[C@H](CS[C@H]2CCCCC(=O)*)N1; dPhe(4-Me) = Cc1ccc(C[C@@H](N)C(=O)O)cc1; Phe(4-Me) = Cc1ccc(C[C@H](N)C(=O)O)cc1; d3Pal = N[C@H](Cc1cccnc1)C(=O)O; Decanoyl = CCCCCCCCCC(=O)*; Octanoyl = CCCCCCCC(=O)*; Orn = NCCC[C@H](N)C(=O)O; Boc = CC(C)(C)OC(=O)*

How the values were obtained:
[1] = target: T1, GPR39 (Homo sapiens, UniProt O43194); test: luciferase assay system (SRE luciferase reporter gene) for GPR39 in CV-1 cells; settings: for EC50: EC50, CV-1 cells
T1 sequence (O43194 1-453): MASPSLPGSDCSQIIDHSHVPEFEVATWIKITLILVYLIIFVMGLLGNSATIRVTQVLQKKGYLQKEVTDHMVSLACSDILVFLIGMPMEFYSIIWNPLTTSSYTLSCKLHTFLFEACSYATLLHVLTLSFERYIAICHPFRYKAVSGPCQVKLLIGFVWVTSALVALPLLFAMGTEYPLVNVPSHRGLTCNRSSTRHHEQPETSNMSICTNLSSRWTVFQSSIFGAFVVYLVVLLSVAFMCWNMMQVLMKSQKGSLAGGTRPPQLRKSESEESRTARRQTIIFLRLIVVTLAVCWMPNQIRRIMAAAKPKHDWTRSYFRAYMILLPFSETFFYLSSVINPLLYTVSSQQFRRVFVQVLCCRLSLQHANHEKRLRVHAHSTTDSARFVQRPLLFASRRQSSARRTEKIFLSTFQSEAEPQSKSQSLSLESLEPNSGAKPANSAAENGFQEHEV
Description: (§1) Specifically, the fibroblast cell line CV-1 (1×10^5 cells/ml, Korea Cell Line Bank) was cultured in a 96 well cell culture plate for 24 hours, and then treated with GPR39 inserted into adenovirus and SRE (serum response element) luciferase at 50 MOI (multiplicity of infection) and 25 MOI virus for 3 hours, respectively, and then cultured for 24 hours.

[2] = target: T1, GPR39
Description: as §1

[3] = GPR39 and SRE luciferase adenovirus, treated 6 hours, luminometer

## CCCCCCCC(=O)NCCCC[C@H](NC(=O)[C@@H](N)Cc1cn(C(c2ccccc2)(c2ccccc2)c2ccccc2)cn1)C(=O)N[C@@H](Cc1ccccc1)C(=O)N[C@@H](Cc1c[nH]c2ccccc12)C(=O)O [HKFY-46, N6-octanoyl-N2-(Nt-trityl-L-histidyl)-L-lysyl-L-phenylalanyl-L-tryptophan] (H-[His(Trt)]K(Octanoyl)FW-OH)
[1]; [3]
  EC50: 260 ± 150 nM
[2]
  ECmax (-fold induction over basal): 20 ± 0.28 -fold induction over basal

## CCCCCCCC(=O)NCCCC[C@H](NC(=O)[C@@H](N)Cc1cn(C(c2ccccc2)(c2ccccc2)c2ccccc2)cn1)C(=O)N[C@H](Cc1ccc(C)cc1)C(=O)N[C@@H](Cc1ccc(O)cc1)C(=O)O [HKFY-30, ((R)-2-((S)-2-((S)-2-amino-3-(1-trityl-1H-imidazol-4-yl)propanamido)-6-octanamidohexanamido)-3-(p-tolyl)propanoyl)-L-tyrosine] (H-[His(Trt)]K(Octanoyl)[dPhe(4-Me)]Y-OH)
[1]; [3]
  EC50: 8 ± 1 nM
[1]; comment on Table 3
  ECmax value (in words): high ECmax value
[1]; comment on Table 3, listed as HIKFY-30
  activity level for GPR39 (in words): most excellent activity
[1]; comment on Table 3, listed as HJKFY-30
  activity level for GPR39 (in words): higher activity level than other HJKFY derivatives
[2]
  ECmax (-fold induction over basal): 23.88 ± 3.04 -fold induction over basal

## CCCCCCCC(=O)NCCCC[C@H](NC(=O)[C@H](N)Cc1cn(C(c2ccccc2)(c2ccccc2)c2ccccc2)cn1)C(=O)N[C@H](Cc1ccc(C)cc1)C(=O)N[C@@H](Cc1ccc(O)cc1)C(=O)O [HKFY-31, ((R)-2-((S)-2-((R)-2-amino-3-(1-trityl-1H-imidazol-4-yl)propanamido)-6-octanamidohexanamido)-3-(p-tolyl)propanoyl)-L-tyrosine] (H-[dHis(Trt)]K(Octanoyl)[dPhe(4-Me)]Y-OH)
[1]; [3]
  EC50: 20 ± 3 nM
[2]
  ECmax (-fold induction over basal): 20.9 ± 2.51 -fold induction over basal

## CCCCCCCC(=O)NCCCC[C@H](NC(=O)[C@@H](N)Cc1c[nH]c(-c2cccs2)n1)C(=O)N[C@H](Cc1ccc(C)cc1)C(=O)N[C@@H](Cc1ccc(O)cc1)C(=O)O [HKFY-63, ((R)-2-((S)-2-((S)-2-amino-3-(2-(thiophen-2-yl)-1H-imidazol-4-yl)propanamido)-6-octanamidohexanamido)-3-(p-tolyl)propanoyl)-L-tyrosine]
[1]; comment on Table 3
  activity level for GPR39 (in words): higher activity level than other HJKFY derivatives
[2]
  ECmax (-fold induction over basal): 13.5 ± 1.8 -fold induction over basal

## CCCCCCCC(=O)NCCCC[C@H](NC(=O)[C@H](Cc1c[nH]c2ccccc12)NC(=O)OC(C)(C)C)C(=O)N[C@H](Cc1ccc(C)cc1)C(=O)N[C@@H](Cc1ccc(O)cc1)C(=O)O [HKFY-78, ((R)-2-((S)-2-((S)-2-((tert-butoxycarbonyl)amino)-3-(1H-indol-3-yl)propanamido)-6-octanamidohexanamido)-3-(p-tolyl)propanoyl)-L-tyrosine] (Boc-WK(Octanoyl)[dPhe(4-Me)]Y-OH)
[1]; [3]
  EC50: 9 ± 1 nM
[2]
  ECmax (-fold induction over basal): 11.4 ± 1.54 -fold induction over basal

## CCCCCCCC(=O)NCCCC[C@H](NC(=O)[C@H](Cc1cn(C(c2ccccc2)c2ccccc2)cn1)NC(=O)CCCC[C@@H]1SC[C@@H]2NC(=O)N[C@@H]21)C(=O)N[C@@H](Cc1ccc(C)cc1)C(=O)N[C@@H](Cc1ccc(O)cc1)C(=O)O [HKFY-72, ((S)-2-((S)-2-((S)-3-(1-benzhydryl-1H-imidazol-4-yl)-2-(5-((3aS,4S,6aR)-2-oxohexahydro-1H-thieno[3,4-d]imidazol-4-yl)pentanamido)propanamido)-6-octanamidohexanamido)-3-(p-tolyl)propanoyl)-L-tyrosine] (Biotin-[His(τ-CHPh2)]K(Octanoyl)[Phe(4-Me)]Y-OH)
[1]; [3]
  EC50: 11 ± 2 nM
[2]
  ECmax (-fold induction over basal): 10.4 ± 1.12 -fold induction over basal

## CCCCCCCC(=O)NCCCC[C@H](NC(=O)[C@@H](N)Cc1cn(C(c2ccccc2)c2ccc(O)cc2)cn1)C(=O)N[C@H](Cc1ccc(C)cc1)C(=O)N[C@@H](Cc1ccc(O)cc1)C(=O)O (stereo partly drawn) [HKFY-65, ((2R)-2-((2S)-2-((2S)-2-amino-3-(1-((4-hydroxyphenyl)(phenyl)methyl)-1H-imidazol-4-yl)propanamido)-6-octanamidohexanamido)-3-(p-tolyl)propanoyl)-L-tyrosine]
[1]; comment on Table 3
  activity level for GPR39 (in words): higher activity level than other HJKFY derivatives
[2]
  ECmax (-fold induction over basal): 18.3 ± 2.2 -fold induction over basal

## CCCCCCCC(=O)NCCCC[C@H](NC(=O)[C@@H](N)Cc1cn(C(c2ccccc2)(c2ccccc2)c2ccccc2)cn1)C(=O)N[C@H](Cc1cccnc1)C(=O)N[C@@H](Cc1ccc(O)cc1)C(=O)O [HKFY-73, ((R)-2-((S)-2-((S)-2-amino-3-(1-trityl-1H-imidazol-4-yl)propanamido)-6-octanamidohexanamido)-3-(pyridin-3-yl)propanoyl)-L-tyrosine] (H-[His(Trt)]K(Octanoyl)[d3Pal]Y-OH)
[1]; [3]
  EC50: 23 ± 1 nM
[2]
  ECmax (-fold induction over basal): 11.6 ± 2.3 -fold induction over basal

## CCCCCCCC(=O)NCCC[C@H](NC(=O)[C@@H](N)Cc1cn(C(c2ccccc2)c2ccccc2)cn1)C(=O)N[C@H](Cc1ccc(C)cc1)C(=O)N[C@@H](Cc1ccc(O)cc1)C(=O)O [HKFY-71, ((R)-2-((S)-2-((S)-2-amino-3-(1-benzhydryl-1H-imidazol-4-yl)propanamido)-5-octanamidopentanamido)-3-(p-tolyl)propanoyl)-L-tyrosine] (H-[His(τ-CHPh2)][Orn](Octanoyl)[dPhe(4-Me)]Y-OH)
[1]; [3]
  EC50: 12 ± 3 nM
[2]
  ECmax (-fold induction over basal): 16.4 ± 2.51 -fold induction over basal

## CCCCCCCC(=O)NCCCC[C@H](NC(=O)[C@@H](N)Cc1cn(-c2ccc(C(C)(C)C)cc2)cn1)C(=O)N[C@H](Cc1ccc(C)cc1)C(=O)N[C@@H](Cc1ccc(O)cc1)C(=O)O [HKFY-61, ((R)-2-((S)-2-((S)-2-amino-3-(1-(4-(tert-butyl)phenyl)-1H-imidazol-4-yl)propanamido)-6-octanamidohexanamido)-3-(p-tolyl)propanoyl)-L-tyrosine]
[1]; [3]
  EC50: 20 ± 3 nM
[2]
  ECmax (-fold induction over basal): 9.88 ± 1.8 -fold induction over basal

## CCCCCCCC(=O)NCCCC[C@H](NC(=O)[C@H](Cc1cn(C(c2ccccc2)(c2ccccc2)c2ccccc2)cn1)NC(=O)[C@H](CO)NC(=O)CN)C(=O)N[C@@H](Cc1ccccc1)C(=O)N[C@@H](Cc1ccc(O)cc1)C(=O)O [HKFY-37, N2-(Na-glycyl-L-seryl-Nt-trityl-L-histidyl)-N6-octanoyl-L-lysyl-L-phenylalanyl-L-tyrosine] (H-GS[His(Trt)]K(Octanoyl)FY-OH)
[1]; [3]
  EC50: 1840 ± 200 nM
[2]
  ECmax (-fold induction over basal): 16 ± 1.7 -fold induction over basal

## CCCCCCCC(=O)NCCCC[C@H](NC(=O)[C@@H](N)Cc1cn(C(c2ccccc2)(c2ccccc2)c2ccccc2)cn1)C(=O)N[C@@H](Cc1ccccc1)C(=O)N[C@@H](Cc1ccc(O)cc1)C(=O)O [HKFY-1, N6-octanoyl-N2-(Nt-trityl-L-histidyl)-L-lysyl-L-phenylalanyl-L-tyrosine] (H-[His(Trt)]K(Octanoyl)FY-OH)
[1]; [3]
  EC50: 150 ± 10 nM
[2]
  ECmax (-fold induction over basal): 20.51 ± 0.57 -fold induction over basal

## CCCCCCCCCC(=O)NCCCC[C@H](NC(=O)[C@@H](N)Cc1cn(C(c2ccccc2)(c2ccccc2)c2ccccc2)cn1)C(=O)N[C@@H](Cc1ccccc1)C(=O)N[C@@H](Cc1ccc(O)cc1)C(=O)O [HKFY-24, N6-decanoyl-N2-(Nt-trityl-L-histidyl)-L-lysyl-L-phenylalanyl-L-tyrosine] (H-[His(Trt)]K(Decanoyl)FY-OH)
[1]; [3]
  EC50: 240 ± 70 nM
[2]
  ECmax (-fold induction over basal): 7.03 ± 0.57 -fold induction over basal

## CCCCCCCC(=O)NCCCC[C@H](NC(=O)[C@@H](N)Cc1cn(C(c2ccccc2)c2ccccc2)cn1)C(=O)N[C@@H](Cc1ccccc1)C(=O)N[C@@H](Cc1ccc(O)cc1)C(=O)O [HKFY-33, N2-(Nt-benzhydryl-L-histidyl)-N6-octanoyl-L-lysyl-L-phenylalanyl-L-tyrosine] (H-[His(τ-CHPh2)]K(Octanoyl)FY-OH)
[1]; [3]
  EC50: 150 ± 70 nM
[2]
  ECmax (-fold induction over basal): 20 ± 0.57 -fold induction over basal

## CCCCCCCC(=O)NCCCC[C@H](NC(=O)[C@@H](N)Cc1cn(C(c2ccccc2)(c2ccccc2)c2ccccc2)cn1)C(=O)N[C@@H](Cc1ccccc1)C(=O)N[C@@H](Cc1ccc(O)cc1)C(=O)N[C@@H](CO)C(=O)N[C@@H](CCC(N)=O)C(=O)N[C@@H](CC(=O)O)C(=O)NCC(=O)N[C@@H](C)C(=O)N[C@@H](CCCNC(=N)N)C(=O)N[C@@H](Cc1ccccc1)C(N)=O [HKFY-41, (3S,6S,9S,12S,15S,18S)-3-((2-(((S)-1-(((S)-1-(((S)-1-amino-1-oxo-3-phenylpropan-2-yl)amino)-5-guanidino-1-oxopentan-2-yl)amino)-1-oxopropan-2-yl)amino)-2-oxoethyl)carbamoyl)-18-((S)-2-amino-3-(1-trityl-1H-imidazol-4-yl)propanamido)-6-(3-amino-3-oxopropyl)-15-benzyl-12-(4-hydroxybenzyl)-9-(hydroxymethyl)-5,8,11,14,17,24-hexaoxo-4,7,10,13,16,23-hexaazahentriacontanoic acid] (H-[His(Trt)]K(Octanoyl)FYSQDGARF-NH2)
[1]; CV-1 cells, GPR39 and SRE luciferase adenovirus, treated 6 hours, luminometer
  ECmax (-fold induction over basal): 12.2 ± 0.02 -fold induction over basal
